Results: patent US10821115B2, “Compounds that inhibit Mcl-1 protein” (priority 2017, dated 2020)
Read-outs that look alike come from different tables or passages of the source.

Columns and labels:
[1] = test system: human multiple myeloma cell line, OPM-2; test: Cell viability assay (OPM-2 10 FBS), CellTiter-Glo; assay type: cell-based
In short: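 OPM-2 cells at 3000 cells/well in RPMI 1640 with 10% FBS were exposed to serially diluted compounds for 16 h at 37 °C, 5% CO2.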

[2] = target: recombinant human Mcl-1 (residues 171-327) / Bim interaction (Homo sapiens (Human), UniProt Q07820); test: biochemical; assay type: binding; details: TR-FRET, Mcl-1(171-327) / biotin-Bim (51-76); read-out: Mcl-1 HTRF IC50
[3] = Homo sapiens, OPM-2, 16 h, read-out: OPM-2 10% FBS IC50 IP, OPM-2 cells, 10% FBS, 16 h, CellTiter-Glo
[4] = read-out: OPM-2 10% FBS IC50 IP, OPM-2 cells, 10% FBS, 16 h, CellTiter-Glo

Sequence of recombinant human Mcl-1 (residues 171-327) / Bim interaction (Q07820 171-327): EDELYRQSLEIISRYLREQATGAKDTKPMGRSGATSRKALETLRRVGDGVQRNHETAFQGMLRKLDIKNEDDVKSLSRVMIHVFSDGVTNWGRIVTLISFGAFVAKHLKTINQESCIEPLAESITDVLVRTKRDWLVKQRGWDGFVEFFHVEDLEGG

SMILES | IC50 [1, 3] [µM] | IC50 [2] [µM] | IC50 [1, 4] [µM]
C[C@H](C(=O)N(C)C)[C@]1(O)/C=C/C[C@H](C)[C@@H](C)S(=O)(=O)NC(=O)c2ccc3c(c2)N(C[C@@H]2CC[C@H]21)C[C@@]1(CCCc2cc(Cl)ccc21)CO3 [Example 100125, (2S)-2-((1S,3′R,6′R,7′S,8′E,11′S,12′R)-6-chloro-7′-hydroxy-11′,12′-dimethyl-13′,13′-dioxido-15′-oxo-3,4-dihydro-2H-spiro[naphthalene-1,22′-[20]oxa[13]thia[1,14]diazatetracyclo [14.7.2.0~3,6~.0~19,24~]pentacosa[8,16,18,24]tetraen]-7′-yl)-N,N-dimethylpropanamide] | 0.555 | 0.00043 | 
C=CC[C@@]1(O)/C=C/C[C@H](C)[C@@H](C)S(=O)(=O)NC(=O)c2ccc3c(c2)N(C[C@@H]2CC[C@H]21)C[C@@]1(CCCc2cc(Cl)ccc21)CO3 [Example 100130, (1S,3′R,6′R,7′R,8′E,11′S,12′R)-6-chloro-7′-hydroxy-11′,12′-dimethyl-7′-(2-propen-1-yl)-3,4-dihydro-2H,15′H-spiro[naphthalene-1,22′-[20]oxa[13]thia[1,14]diazatetracyclo [14.7.2.0~3,6~.0~19,24~]pentacosa[8,16,18,24]tetraen]-15′-one 13′,13′-dioxide] |  | 0.00269 | 2.17
COC1=NO[C@@]2(CCC[C@H](C)[C@@H](C)S(=O)(=O)NC(=O)c3ccc4c(c3)N(C[C@@H]3CC[C@H]32)C[C@@]2(CCCc3cc(Cl)ccc32)CO4)C1 [Example 100134, (1S,3′R,6′R,7′S,11′S,12′R)-6-chloro-3″- methoxy-11′,12′-dimethyl-3,4-dihydro-2H,4″H,15′H-dispiro[naphthalene-1,22′-[20]oxa[13]thia[1,14]diazatetracyclo [14.7.2.0~3,6~.0~19,24~]pentacosa[16,18,24]triene-7′,5″-[1,2]oxazol]-15′-one 13′,13′-dioxide] | 3.51 | 0.000845 | 
C[C@@H]1[C@@H](C)CCC[C@]2(CC(N(C)C)=NO2)[C@@H]2CC[C@H]2CN2C[C@@]3(CCCc4cc(Cl)ccc43)COc3ccc(cc32)C(=O)NS1(=O)=O [Example 100136, (1S,3′R,6′R,7′S,11′S,12′R)-6-chloro-3″- (dimethylamino)-11′,12′-dimethyl-3,4-dihydro-2H,4″H,15′H-dispiro[naphthalene-1,22′-[20]oxa[13]thia[1,14]diazatetracyclo [14.7.2.0~3,6~.0~19,24~]pentacosa[16,18,24]triene-7′,5″-[1,2]oxazol]-15′-one 13′,13′-dioxide] | 0.556 | 0.000368 | 
C[C@@H]1[C@@H](C)C/C=C/[C@@](O)([C@@H]2CCN(C)C2=O)[C@@H]2CC[C@H]2CN2C[C@@]3(CCCc4cc(Cl)ccc43)COc3ccc(cc32)C(=O)NS1(=O)=O [Example 100137, (1S,3′R,6′R,7′S,8′E,11′S,12′R)-6-chloro-7′-hydroxy-11′,12′-dimethyl-7′-((3S)-1-methyl-2-oxo-3-pyrrolidinyl)-3,4-dihydro-2H,15′H-spiro[naphthalene-1,22′-[20]oxa[13]thia[1,14]diazatetracyclo [14.7.2.0~3,6~.0~19,24~]pentacosa[8,16,18,24]tetraen]-15′-one 13′,13′-dioxide] |  | 0.000365 | 2.82
C[C@@H]1[C@@H](C)CCC[C@@](O)(CS(=O)(=O)N2CCN(C)CC2)[C@@H]2CC[C@H]2CN2C[C@@]3(CCCc4cc(Cl)ccc43)COc3ccc(cc32)C(=O)NS1(=O)=O [Example 100138, (1S,3′R,6′R,7′S,11′S,12′R)-6-chloro-7′-hydroxy-11′,12′-dimethyl-7′-(((4-methyl-1-piperazinyl)sulfonyl)methyl)-3,4-dihydro-2H,15′H-spiro[naphthalene-1,22′-[20]oxa[13]thia[1,14]diazatetracyclo [14.7.2.0~3,6~.0~19,24~]pentacosa[16,18,24]trien]-15′-one 13′,13′-dioxide] |  | 0.000549 | 0.342
C[C@@H]1[C@@H](C)CCC[C@@](O)(CS(=O)(=O)N2CCN(C)CC2)[C@@H]2CC[C@H]2CN2C[C@@]3(CCCc4cc(Cl)ccc43)COc3ccc(cc32)C(=O)NS1(=O)=O [Example 100139, (1S,3′R,6′R,7′S,11′S,12′R)-6-chloro-7′-hydroxy-11′,12′-dimethyl-7′-(((4-methyl-1-piperazinyl)sulfonyl)methyl)-3,4-dihydro-2H,15′H-spiro[naphthalene-1,22′-[20]oxa[13]thia[1,14]diazatetracyclo [14.7.2.0~3,6~.0~19,24~]pentacosa[16,18,24]trien]-15′-one 13′,13′-dioxide] |  | 0.00259 | 0.974
COCCN(C)C(=O)C[C@]1(O)CCC[C@H](C)[C@@H](C)S(=O)(=O)NC(=O)c2ccc3c(c2)N(C[C@@H]2CC[C@H]21)C[C@@]1(CCCc2cc(Cl)ccc21)CO3 [Example 100140, 2-((1S,3′R,6′R,7′R,11′S,12′R)-6-chloro-7′-hydroxy-11′,12′-dimethyl-13′,13′-dioxido-15′-oxo-3,4-dihydro-2H-spiro[naphthalene-1,22′-[20]oxa[13]thia[1,14]diazatetracyclo [14.7.2.0~3,6~.0~19,24~]pentacosa[16,18,24]trien]-7′-yl)-N-(2-methoxyethyl)-N-methylacetamide] |  | 0.000486 | 0.299
COCCN(C)C(=O)C[C@]1(O)CCC[C@H](C)[C@@H](C)S(=O)(=O)NC(=O)c2ccc3c(c2)N(C[C@@H]2CC[C@H]21)C[C@@]1(CCCc2cc(Cl)ccc21)CO3 [Example 100141, 2-((1S,3′R,6′R,7′R,11′S,12′R)-6-chloro-7′-hydroxy-11′,12′-dimethyl-13′,13′-dioxido-15′-oxo-3,4-dihydro-2H-spiro[naphthalene-1,22′-[20]oxa[13]thia[1,14]diazatetracyclo [14.7.2.0~3,6~.0~19,24~]pentacosa[16,18,24]trien]-7′-yl)-N-(2-methoxyethyl)-N-methylacetamide] |  | 0.00106 | 1.37
C[C@@H]1[C@@H](C)CCC[C@@](O)(CC(=O)N2CCC2)[C@@H]2CC[C@H]2CN2C[C@@]3(CCCc4cc(Cl)ccc43)COc3ccc(cc32)C(=O)NS1(=O)=O [Example 100145, (1S,3′R,6′R,7′R,11′S,12′R)-7′-(2-(1-azetidinyl)-2-oxoethyl)-6-chloro-7′-hydroxy-11′,12′-dimethyl-3,4-dihydro-2H,15′H-spiro[naphthalene-1,22′-[20]oxa[13]thia[1,14]diazatetracyclo [14.7.2.0~3,6~.0~19,24~]pentacosa[16,18,24]trien]-15′-one 13′,13′-dioxide] |  | 0.000357 | 0.945
C[C@@H]1[C@@H](C)CCC[C@@](O)(Cc2ncccn2)[C@@H]2CC[C@H]2CN2C[C@@]3(CCCc4cc(Cl)ccc43)COc3ccc(cc32)C(=O)NS1(=O)=O [Example 100146, (1S,3′R,6′R,7′R,11′S,12′R)-6-chloro-7′-hydroxy-11′,12′-dimethyl-7′-(2-pyrimidinylmethyl)-3,4-dihydro-2H,15′H-spiro[naphthalene-1,22′-[20]oxa[13]thia[1,14]diazatetracyclo [14.7.2.0~3,6~.0~19,24~]pentacosa[16,18,24]trien]-15′-one 13′,13′-dioxide] | 0.347 | 0.000515 | 
C[C@@H]1[C@@H](C)CCC[C@]2(CC(N3CCCC3)=NO2)[C@@H]2CC[C@H]2CN2C[C@@]3(CCCc4cc(Cl)ccc43)COc3ccc(cc32)C(=O)NS1(=O)=O [Example 100147, (1S,3′R,6′R,7′S,11′S,12′R)-6-chloro-11′,12′-dimethyl-3″-(1-pyrrolidinyl)-3,4-dihydro-2H,4″H,15′H-dispiro[naphthalene-1,22′-[20]oxa[13]thia[1,14]diazatetracyclo [14.7.2.0~3,6~.0~19,24~]pentacosa[16,18,24]triene-7′,5″-[1,2]oxazol]-15′-one 13′,13′-dioxide] | 0.666 | 0.000305 | 
C[C@@H]1[C@@H](C)C/C=C/[C@@](O)(CCCO)[C@@H]2CC[C@H]2CN2C[C@@]3(CCCc4cc(Cl)ccc43)COc3ccc(cc32)C(=O)NS1(=O)=O [Example 100148, (1S,3′R,6′R,7′S,8′E,11′S,12′R)-6-chloro-7′-hydroxy-7′-(3-hydroxypropyl)-11′,12′-dimethyl-3,4-dihydro-2H,15′H-spiro[naphthalene-1,22′-[20]oxa[13]thia[1,14]diazatetracyclo [14.7.2.0~3,6~.0~19,24~]pentacosa[8,16,18,24]tetraen]-15′-one 13′,13′-dioxide] |  | 0.000113 | 0.239
COC[C@@]1(O)CCC[C@H](C)[C@@H](C)S(=O)(=O)NC(=O)c2ccc3c(c2)N(C[C@@H]2CC[C@H]21)C[C@@]1(CCCc2cc(Cl)ccc21)CO3 [Example 100150, (1S,3′R,6′R,7′R,11′S,12′R)-6-chloro-7′-hydroxy-7′-(methoxymethyl)-11′,12′-dimethyl-3,4-dihydro-2H,15′H-spiro[naphthalene-1,22′-[20]oxa[13]thia[1,14]diazatetracyclo [14.7.2.0~3,6~.0~19,24~]pentacosa[16,18,24]trien]-15′-one 13′,13′-dioxide] | 1.43 | 0.00169 | 
C[C@@H]1[C@@H](C)C/C=C/[C@@](O)(Cc2ccncn2)[C@@H]2CC[C@H]2CN2C[C@@]3(CCCc4cc(Cl)ccc43)COc3ccc(cc32)C(=O)NS1(=O)=O [Example 100151, (1S,3′R,6′R,7′S,8′E,11′S,12′R)-6-chloro-7′-hydroxy-11′,12′-dimethyl-7′-(4-pyrimidinylmethyl)-3,4-dihydro-2H,15′H-spiro[naphthalene-1,22′-[20]oxa[13]thia[1,14]diazatetracyclo [14.7.2.0~3,6~.0~19,24~]pentacosa[8,16,18,24]tetraen]-15′-one 13′,13′-dioxide] |  | 0.00012 | 0.071
